The structures appear in SMILES notation.

Experiment [1] relates to PC3 (prostate cancer) cells. Nature of the experiment: SRB cytotoxicity assay, PC3. The class given is cell-based. As to conditions: Homo sapiens, 48 h, read-out: Cytotoxicity IC50, PC3.
Experiment [2] concerns HDAC (Hela cell nuclear extract). Type of experiment: biochemical. As to conditions: Hela cell nuclear extract.
Experiment [3] concerns SW620, PC3 and NCI-H23 cancer cell lines. Nature of the experiment: SRB cytotoxicity, range over three human cancer cell lines. The class given is cell-based. The conditions noted are these: read-out: Cytotoxicity IC50 values (range over cell lines).
The test system of experiment [4] is NCI-H23 (lung cancer) cells. Nature of the experiment: SRB cytotoxicity assay, NCI-H23. Type of experiment: cell-based. As to conditions: Homo sapiens, NCI-H23, 48 h, read-out: Cytotoxicity IC50, NCI-H23. On the technique in general: The SRB assay estimates cell density from bound dye.
For experiment [5], the system named is SW620 (colon cancer) cells. Description: SRB cytotoxicity assay, SW620. Type of experiment: cell-based. The conditions noted are these: Homo sapiens, SW-620, 48 h, read-out: Cytotoxicity IC50, SW620.
For a further experiment, the target named is T1, HDAC6 (Homo sapiens, UniProt Q9UBN7).
T1 sequence (Q9UBN7 1-1215): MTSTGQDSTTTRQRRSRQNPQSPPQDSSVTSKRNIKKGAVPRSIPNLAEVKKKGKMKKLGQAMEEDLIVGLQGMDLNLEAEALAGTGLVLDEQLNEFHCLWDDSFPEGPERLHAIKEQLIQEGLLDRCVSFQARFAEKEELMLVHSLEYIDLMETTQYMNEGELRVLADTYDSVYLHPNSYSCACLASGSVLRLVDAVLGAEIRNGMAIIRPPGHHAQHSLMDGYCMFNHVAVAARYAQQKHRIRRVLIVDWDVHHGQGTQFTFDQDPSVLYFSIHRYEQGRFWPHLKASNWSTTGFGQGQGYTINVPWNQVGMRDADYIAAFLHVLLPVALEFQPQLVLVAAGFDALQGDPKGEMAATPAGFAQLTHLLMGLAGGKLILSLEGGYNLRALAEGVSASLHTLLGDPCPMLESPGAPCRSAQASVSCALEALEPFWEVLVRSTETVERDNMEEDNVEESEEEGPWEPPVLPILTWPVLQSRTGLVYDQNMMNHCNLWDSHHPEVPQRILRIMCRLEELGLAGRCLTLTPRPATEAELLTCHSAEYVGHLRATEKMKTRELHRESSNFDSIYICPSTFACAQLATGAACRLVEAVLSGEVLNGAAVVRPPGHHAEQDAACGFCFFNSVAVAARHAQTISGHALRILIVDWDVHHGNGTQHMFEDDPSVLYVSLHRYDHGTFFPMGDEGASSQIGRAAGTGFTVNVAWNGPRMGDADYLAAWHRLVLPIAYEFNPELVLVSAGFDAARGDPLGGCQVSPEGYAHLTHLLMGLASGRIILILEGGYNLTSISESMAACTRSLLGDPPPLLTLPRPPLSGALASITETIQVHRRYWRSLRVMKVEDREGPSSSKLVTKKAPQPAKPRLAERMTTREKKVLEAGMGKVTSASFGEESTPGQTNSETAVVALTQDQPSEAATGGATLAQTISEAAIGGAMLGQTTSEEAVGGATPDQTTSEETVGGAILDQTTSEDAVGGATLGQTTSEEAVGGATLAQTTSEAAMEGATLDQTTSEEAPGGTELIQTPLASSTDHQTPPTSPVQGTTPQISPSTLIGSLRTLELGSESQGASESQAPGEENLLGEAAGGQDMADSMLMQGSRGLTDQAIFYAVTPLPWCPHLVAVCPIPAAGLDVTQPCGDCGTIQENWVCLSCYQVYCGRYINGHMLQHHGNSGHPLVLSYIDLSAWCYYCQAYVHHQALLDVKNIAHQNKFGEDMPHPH
Nature of the experiment: HDAC6 enzyme assay. Type of experiment: biochemical.

Broadly, the IC50 is the concentration at which inhibition is half-maximal. As to `O=C(/C=C/c1cccc(S(=O)(=O)Nc2ccccc2)c1)NO` [Belinostat, belinostat, reference compound], in experiment [1], the IC50 was determined as 2.53 ± 0.17 µM.
With `CCn1cnc2ccc(/C=C/C(=O)NO)cc2c1=O` [Compound 9a, (E)-3-(3-Ethyl-4-oxo-3,4-dihydroquinazolin-6-yl)-N-hydroxyacrylamide], the “fold higher HDAC IC50 than that of SAHA” value in experiment [2] was “approximately 10 fold”. For the same compound, the IC50 in experiment [3] was 3.2 to 7.04 µM; in experiment [4] it was 5.787 ± 0.003 µM.
With `O=C(/C=C/c1ccc2ncn(CCCl)c(=O)c2c1)NO` [Compound 9b, (E)-3-(3-(2-Chloroethyl)-4-oxo-3,4-dihydroquinazolin-6-yl)-N-hydroxyacrylamide], the “fold higher HDAC IC50 than that of SAHA” value in experiment [2] was approximately 20 fold. Besides, the results for the IC50 in experiment [5], in experiment [3] and in experiment [1] were 4.04 ± 0.053 µM, 3.2 to 7.04 µM and 3.97 ± 0.391 µM, respectively.
`O=C(/C=C/c1ccc2ncn(CCO)c(=O)c2c1)NO` [Compound 9c, (E)-N-Hydroxy-3-(3-(2-hydroxyethyl)-4-oxo-3,4-dihydroquinazolin-6-yl)acrylamide]: the IC50 in experiment [5] worked out at 3.67 ± 0.067 µM; in experiment [1], 4.65 ± 0.171 µM; in experiment [4], 4.309 ± 0.04 µM.
On to `CCCn1cnc2ccc(/C=C/C(=O)NO)cc2c1=O` [Compound 9d, (E)-N-Hydroxy-3-(4-oxo-3-propyl-3,4-dihydroquinazolin-6-yl)acrylamide], for which the IC50 in experiment [1] came out at 2.87 ± 0.224 µM; in experiment [4], 1.61 ± 0.074 µM.
For the compound `CCCCn1cnc2ccc(/C=C/C(=O)NO)cc2c1=O` [Compound 9e, (E)-3-(3-Butyl-4-oxo-3,4-dihydroquinazolin-6-yl)-N-hydroxyacrylamide], the IC50 in experiment [5] stood at 1.96 ± 0.103 µM; in experiment [1], 1.689 ± 0.014 µM; in experiment [4], 1.45 ± 0.015 µM.
With `O=C(/C=C/c1ccc2ncn(CC3CCCC3)c(=O)c2c1)NO` [Compound 9f, (E)-3-(3-(Cyclopentylmethyl)-4-oxo-3,4-dihydroquinazolin-6-yl)-N-hydroxyacrylamide], the IC50 turned out to be 1.22 ± 0.1 µM in experiment [1] and 0.952 ± 0.029 µM in experiment [4].
As to `O=C(/C=C/c1ccc2ncn(CC3CCCCC3)c(=O)c2c1)NO` [Compound 9g, (E)-3-(3-(Cyclohexylmethyl)-4-oxo-3,4-dihydroquinazolin-6-yl)-N-hydroxyacrylamide], the IC50 in experiment [1] was determined as 0.997 ± 0.018 µM; in experiment [4], 1.291 ± 0.003 µM.
`O=C(/C=C/c1ccc2ncn(Cc3ccccc3F)c(=O)c2c1)NO` [Compound 9i, (E)-3-(3-(2-Fluorobenzyl)-4-oxo-3,4-dihydroquinazolin-6-yl)-N-hydroxyacrylamide]: the IC50 in experiment [3] is 0.639 to 1.12 µM; in experiment [4], 0.659 ± 0.02 µM.
Take `O=C(/C=C/c1ccc2ncn(Cc3cccc(F)c3)c(=O)c2c1)NO` [Compound 9j, (E)-3-(3-(3-Fluorobenzyl)-4-oxo-3,4-dihydroquinazolin-6-yl)-N-hydroxyacrylamide]: the results for the IC50 in experiment [5], in experiment [1] and in experiment [4] were 2.06 ± 0.058 µM, 1.28 ± 0.013 µM and 1.669 ± 0.005 µM, respectively.
Consider `O=C(/C=C/c1ccc2ncn(Cc3ccc(F)cc3)c(=O)c2c1)NO` [Compound 9k, (E)-3-(3-(4-Fluorobenzyl)-4-oxo-3,4-dihydroquinazolin-6-yl)-N-hydroxyacrylamide], for which the IC50 came to 1.9 ± 0.055 µM in experiment [5], 1.04 ± 0.013 µM in experiment [1] and 1.37 ± 0.072 µM in experiment [4].
`O=C(/C=C/c1ccc2ncn(Cc3ccc(Cl)cc3)c(=O)c2c1)NO` [Compound 9l, (E)-3-(3-(4-Chlorobenzyl)-4-oxo-3,4-dihydroquinazolin-6-yl)-N-hydroxyacrylamide]: the IC50 in experiment [1] stood at 1.37 ± 0.03 µM; in experiment [4], 1.66 ± 0.028 µM.
For `Cc1ccc(Cn2cnc3ccc(/C=C/C(=O)NO)cc3c2=O)cc1` [Compound 9m, (E)-N-Hydroxy-3-(3-(4-methylbenzyl)-4-oxo-3,4-dihydroquinazolin-6-yl)acrylamide], in that order: 1.27 ± 0.026 µM and 1.38 ± 0.03 µM.
In the case of `CCn1cnc2cc(/C=C/C(=O)NO)ccc2c1=O` [Compound 10a, (E)-3-(3-Ethyl-4-oxo-3,4-dihydroquinazolin-7-yl)-N-hydroxyacrylamide], the IC50 in experiment [1] was found to be 1.681 ± 0.008 µM; against HDAC6 it was 0.08 µM; in experiment [4], 2.35 ± 0.056 µM.
On to `O=C(/C=C/c1ccc2c(=O)n(CCCl)cnc2c1)NO` [Compound 10b, (E)-3-(3-(2-Chloroethyl)-4-oxo-3,4-dihydroquinazolin-7-yl)-N-hydroxyacrylamide], for which the IC50 in experiment [1] was found to be 5.55 ± 0.231 µM; at HDAC6 it was 0.322 ± 0.013 µM; in experiment [4], 7.66 ± 0.691 µM.
With `O=C(/C=C/c1ccc2c(=O)n(CCO)cnc2c1)NO` [Compound 10c, (E)-N-Hydroxy-3-(3-(2-hydroxyethyl)-4-oxo-3,4-dihydroquinazolin-7-yl)acrylamide], the figures for the IC50 (in experiment [1]; against HDAC6) were 5.05 ± 0.399 µM and 0.096 ± 0.006 µM, respectively.
`CCCn1cnc2cc(/C=C/C(=O)NO)ccc2c1=O` [Compound 10d, (E)-N-Hydroxy-3-(4-oxo-3-propyl-3,4-dihydroquinazolin-7-yl)acrylamide]: the half-inhibitory concentration (IC50) in experiment [1] worked out at 1.5 ± 0.135 µM; at HDAC6, 0.048 ± 0.002 µM; in experiment [4], 1.9 ± 0.053 µM.
With `CCCCn1cnc2cc(/C=C/C(=O)NO)ccc2c1=O` [Compound 10e, (E)-3-(3-Butyl-4-oxo-3,4-dihydroquinazolin-7-yl)-N-hydroxyacrylamide], the IC50 in experiment [5] is 3.685 ± 0.027 µM; in experiment [1], 2.85 ± 0.094 µM; at HDAC6, 0.029 µM; in experiment [4], 2.749 ± 0.016 µM.
With `O=C(/C=C/c1ccc2c(=O)n(CC3CCCC3)cnc2c1)NO` [Compound 10f, (E)-3-(3-(Cyclopentylmethyl)-4-oxo-3,4-dihydroquinazolin-7-yl)-N-hydroxyacrylamide], the IC50 was determined as 3.21 ± 0.083 µM in experiment [5], 0.022 µM against HDAC6 and 3.16 ± 0.213 µM in experiment [4].
With `O=C(/C=C/c1ccc2c(=O)n(CC3CCCCC3)cnc2c1)NO` [Compound 10g, (E)-3-(3-(Cyclohexylmethyl)-4-oxo-3,4-dihydroquinazolin-7-yl)-N-hydroxyacrylamide], in experiment [1], the IC50 turned out to be 2.54 ± 0.026 µM. Also, the “fold lower HDAC6 IC50 than IC50 in Hela nuclear extract assay” value on HDAC6 (HDAC6 vs total HDAC extract) came out at 10 fold.
Take `O=C(/C=C/c1ccc2c(=O)n(Cc3ccccc3)cnc2c1)NO` [Compound 10h, (E)-3-(3-Benzyl-4-oxo-3,4-dihydroquinazolin-7-yl)-N-hydroxyacrylamide]: the IC50 in experiment [1] worked out at 1.32 ± 0.025 µM; against HDAC6, 0.04 ± 0.001 µM; in experiment [4] it was 1.18 ± 0.015 µM.
With `O=C(/C=C/c1ccc2c(=O)n(Cc3ccccc3F)cnc2c1)NO` [Compound 10i, (E)-3-(3-(2-Fluorobenzyl)-4-oxo-3,4-dihydroquinazolin-7-yl)-N-hydroxyacrylamide], the results for the IC50 (in experiment [1]; on HDAC6; in experiment [4]) were 1.95 ± 0.066 µM, 0.025 ± 0.001 µM and 2.1 ± 0.132 µM, respectively.
For `O=C(/C=C/c1ccc2c(=O)n(Cc3cccc(F)c3)cnc2c1)NO` [Compound 10j, (E)-3-(3-(3-Fluorobenzyl)-4-oxo-3,4-dihydroquinazolin-7-yl)-N-hydroxyacrylamide], the IC50 is 1.396 ± 0.009 µM in experiment [1], 0.023 µM against HDAC6 and 1.914 ± 0.006 µM in experiment [4].
The corresponding values for `O=C(/C=C/c1ccc2c(=O)n(Cc3ccc(F)cc3)cnc2c1)NO` [Compound 10k, (E)-3-(3-(4-Fluorobenzyl)-4-oxo-3,4-dihydroquinazolin-7-yl)-N-hydroxyacrylamide] are 1.49 ± 0.023 µM, 0.042 ± 0.001 µM and 1.49 ± 0.018 µM.
